Measured values reported in patent US20160289745A1, “NUCLEIC ACID ASSAY FOR DIAGNOSING OR […] PATHOGEN INFECTION IN A BODILY FLUID FROM A SUBJECT TREATED WITH AN ANTI-[…]” (priority 2012, published 2016).

How the values were obtained:
[1] = test system: MTC strain (Mycobacterium tuberculosis); experiment: Drug susceptibility testing of the patient's MTC strain; assay type: cell-based
[2] = test system: Mycobacterium tuberculosis Complex (MTC); details: human, in vivo

Row | SMILES | drug susceptibility testing result ([1]; MTC strain of patient 21) | drug susceptibility testing result ([1]; MTC strain of patient 23) | analysis of DNA in urine [2]
1 | NNC(=O)c1ccncc1 [Isoniazid] | resistance | resistance | –
2 | Nc1ccc(C(=O)O)c(O)c1 [PAS, para-aminosalicylic acid] | – | – | negative
3 | CCCc1cc(C(N)=S)ccn1 [Prothionamid] | resistance | resistance | –
4 | [H]/N=C(/N)N[C@H]1[C@H](O)[C@@H](O)[C@H](O[C@@H]2O[C@@H](C)[C@](O)(C=O)[C@H]2O[C@@H]2O[C@@H](CO)[C@H](O)[C@@H](O)[C@@H]2NC)[C@@H](N/C(N)=N\[H])[C@@H]1O [Streptomycin] | resistance | resistance | –
